Laboratory results taken from ChEMBL document CHEMBL3885861, “Open TG-GATES”.

Organism: Rattus norvegicus
Assay: Open TG-GATES - Regimen: Daily Repeat
Type: toxicity, organism-based, Sprague-Dawley
Set-up: regimen Daily Repeat, gender Male, age 6 weeks
Conditions: in vivo, po, 0 mg/kg, route gavage, dose level Control; for APTT / Bas / Eos / Fbg / Hb / Ht / Lym / MCHC / MCV / Mono / Neu / PT / Plat / RBC / Ret / WBC: tissue Blood; for KIDNEY_L / KIDNEY_R / KIDNEY_TOTAL: tissue Kidney; for LIVER: tissue Liver; for ALP / ALT / AST / CRE / DBIL / GLC / IP / K / LDH / Na / PL / RALB / TBIL / TC / TG / TP / gamma-GTP: tissue Plasma

With `C#C[C@]1(O)CC[C@H]2[C@@H]3CCC4=Cc5oncc5C[C@]4(C)[C@H]3CC[C@@]21C` [DANAZOL] the TERMINAL_BW (72 h, time 3 day) was 236.4 g, the APTT (72 h, time 3 day) was 23.9 s and the Bas (72 h, time 3 day) was 0%. It also gave an Eos (72 h, time 3 day) of 0.8%, a Fbg (72 h, time 3 day) of 304.4 mg/dL and a Hb (72 h, time 3 day) of 13.4 g/dL. It also gave a Ht (72 h, time 3 day) of 40.8%, a Lym (72 h, time 3 day) of 77.4% and an MCHC (72 h, time 3 day) of 32.7%. For the same compound, the MCV (72 h, time 3 day) was 63.8 fL, the Mono (72 h, time 3 day) was 3% and the Neu (72 h, time 3 day) was 17.2%. The PT (72 h, time 3 day) was 15.5 s, the Plat (72 h, time 3 day) was 120.7 x10_4/uL and the RBC (72 h, time 3 day) was 639.8 x10_4/ul. The Ret (72 h, time 3 day) was 6.7%, the WBC (72 h, time 3 day) was 80.8 x10_2/uL and the KIDNEY_L (72 h, time 3 day) was 1 g. For the same compound, the KIDNEY_R (72 h, time 3 day) was 1 g, the KIDNEY_TOTAL (72 h, time 3 day) was 2 g and the LIVER (72 h, time 3 day) was 11.6 g. For the same compound, the ALP (72 h, time 3 day) was 1436.8 IU/L, the ALT (72 h, time 3 day) was 45.8 IU/L and the AST (72 h, time 3 day) was 72.4 IU/L. The CRE (72 h, time 3 day) was 0.2 mg/dL, the DBIL (72 h, time 3 day) was 0 mg/dL and the GLC (72 h, time 3 day) was 197.6 mg/dL. The IP (72 h, time 3 day) was 7.8 mg/dL, the K (72 h, time 3 day) was 4.2 meq/L and the LDH (72 h, time 3 day) was 190 IU/L. It also gave a Na (72 h, time 3 day) of 142.6 meq/L, a PL (72 h, time 3 day) of 140 mg/dL and an RALB (72 h, time 3 day) of 3.1 g/dL. It also gave a TBIL (72 h, time 3 day) of 0.008 mg/dL, a TC (72 h, time 3 day) of 72.2 mg/dL and a TG (72 h, time 3 day) of 95.6 mg/dL. The TP (72 h, time 3 day) was 5.5 g/dL, the gamma-GTP (72 h, time 3 day) was 1.6 IU/L and the TERMINAL_BW ([…], time 7 day) was 266.9 g. The TERMINAL_BW ([…], time 14 day) was 328.6 g, the TERMINAL_BW ([…], time 28 day) was 402.2 g and the APTT ([…], time 7 day) was 22.8 s. The Bas ([…], time 7 day) was 0%, the Eos ([…], time 7 day) was 1% and the Fbg ([…], time 7 day) was 302.8 mg/dL. For the same compound, the Hb ([…], time 7 day) was 13.8 g/dL, the Ht ([…], time 7 day) was 40.8% and the Lym ([…], time 7 day) was 76.8%. For the same compound, the MCHC ([…], time 7 day) was 33.9%, the MCV ([…], time 7 day) was 60.1 fL and the Mono ([…], time 7 day) was 3%. It also gave a Neu ([…], time 7 day) of 18.8%, a PT ([…], time 7 day) of 15.2 s and a Plat ([…], time 7 day) of 116.5 x10_4/uL. It also gave an RBC ([…], time 7 day) of 678.8 x10_4/ul, a Ret ([…], time 7 day) of 5.9% and a WBC ([…], time 7 day) of 114.8 x10_2/uL. For the same compound, the APTT ([…], time 14 day) was 24.6 s, the Bas ([…], time 14 day) was 0% and the Eos ([…], time 14 day) was 0.8%. It also gave a Fbg ([…], time 14 day) of 325.6 mg/dL, a Hb ([…], time 14 day) of 14.5 g/dL and a Ht ([…], time 14 day) of 41.5%. For the same compound, the Lym ([…], time 14 day) was 83%, the MCHC ([…], time 14 day) was 34.9% and the MCV ([…], time 14 day) was 60.6 fL. It also gave a Mono ([…], time 14 day) of 2%, a Neu ([…], time 14 day) of 13.4% and a PT ([…], time 14 day) of 15.3 s. It also gave a Plat ([…], time 14 day) of 124.1 x10_4/uL, an RBC ([…], time 14 day) of 685.8 x10_4/ul and a Ret ([…], time 14 day) of 3.8%. For the same compound, the WBC ([…], time 14 day) was 122.1 x10_2/uL, the APTT ([…], time 28 day) was 23.5 s and the Bas ([…], time 28 day) was 0%. It also gave an Eos ([…], time 28 day) of 1%, a Fbg ([…], time 28 day) of 293 mg/dL and a Hb ([…], time 28 day) of 14.6 g/dL. It also gave a Ht ([…], time 28 day) of 42.9%, a Lym ([…], time 28 day) of 82.8% and an MCHC ([…], time 28 day) of 34.1%. For the same compound, the MCV ([…], time 28 day) was 57.9 fL, the Mono ([…], time 28 day) was 1.8% and the Neu ([…], time 28 day) was 13.6%. The PT ([…], time 28 day) was 15.9 s, the Plat ([…], time 28 day) was 101.9 x10_4/uL and the RBC ([…], time 28 day) was 740 x10_4/ul. The Ret ([…], time 28 day) was 2.1%, the WBC ([…], time 28 day) was 119.8 x10_2/uL and the KIDNEY_L ([…], time 7 day) was 1.1 g. It also gave a KIDNEY_R ([…], time 7 day) of 1.1 g, a KIDNEY_TOTAL ([…], time 7 day) of 2.3 g and a KIDNEY_L ([…], time 14 day) of 1.3 g. For the same compound, the KIDNEY_R ([…], time 14 day) was 1.4 g, the KIDNEY_TOTAL ([…], time 14 day) was 2.7 g and the KIDNEY_L ([…], time 28 day) was 1.4 g. The KIDNEY_R ([…], time 28 day) was 1.4 g, the KIDNEY_TOTAL ([…], time 28 day) was 2.8 g and the LIVER ([…], time 7 day) was 12 g. For the same compound, the LIVER ([…], time 14 day) was 14.6 g, the LIVER ([…], time 28 day) was 15.8 g and the ALP ([…], time 7 day) was 1763.8 IU/L. It also gave an ALT ([…], time 7 day) of 42 IU/L, an AST ([…], time 7 day) of 69.6 IU/L and a CRE ([…], time 7 day) of 0.2 mg/dL. For the same compound, the DBIL ([…], time 7 day) was 0 mg/dL, the GLC ([…], time 7 day) was 202.8 mg/dL and the IP ([…], time 7 day) was 7.2 mg/dL. It also gave a K ([…], time 7 day) of 4.4 meq/L, an LDH ([…], time 7 day) of 184 IU/L and a Na ([…], time 7 day) of 141.8 meq/L. For the same compound, the PL ([…], time 7 day) was 157 mg/dL, the RALB ([…], time 7 day) was 3 g/dL and the TBIL ([…], time 7 day) was 0.004 mg/dL. It also gave a TC ([…], time 7 day) of 80.4 mg/dL, a TG ([…], time 7 day) of 106.8 mg/dL and a TP ([…], time 7 day) of 5.5 g/dL. For the same compound, the gamma-GTP ([…], time 7 day) was 1.6 IU/L, the ALP ([…], time 14 day) was 1603.8 IU/L and the ALT ([…], time 14 day) was 36.8 IU/L. The AST ([…], time 14 day) was 65.6 IU/L, the CRE ([…], time 14 day) was 0.2 mg/dL and the DBIL ([…], time 14 day) was 0 mg/dL. It also gave a GLC ([…], time 14 day) of 188.2 mg/dL, an IP ([…], time 14 day) of 7.2 mg/dL and a K ([…], time 14 day) of 4.2 meq/L. It also gave an LDH ([…], time 14 day) of 186.6 IU/L, a Na ([…], time 14 day) of 142.2 meq/L and a PL ([…], time 14 day) of 158 mg/dL. It also gave an RALB ([…], time 14 day) of 3.1 g/dL, a TBIL ([…], time 14 day) of 0.004 mg/dL and a TC ([…], time 14 day) of 74.4 mg/dL. It also gave a TG ([…], time 14 day) of 139.8 mg/dL, a TP ([…], time 14 day) of 5.8 g/dL and a gamma-GTP ([…], time 14 day) of 3 IU/L. It also gave an ALP ([…], time 28 day) of 1301.4 IU/L, an ALT ([…], time 28 day) of 41.8 IU/L and an AST ([…], time 28 day) of 63.8 IU/L. The CRE ([…], time 28 day) was 0.2 mg/dL, the DBIL ([…], time 28 day) was 0 mg/dL and the GLC ([…], time 28 day) was 200.4 mg/dL. For the same compound, the IP ([…], time 28 day) was 6.4 mg/dL, the K ([…], time 28 day) was 4 meq/L and the LDH ([…], time 28 day) was 141.6 IU/L. The Na ([…], time 28 day) was 141.8 meq/L, the PL ([…], time 28 day) was 144.2 mg/dL and the RALB ([…], time 28 day) was 3 g/dL. It also gave a TBIL ([…], time 28 day) of 0 mg/dL, a TC ([…], time 28 day) of 71 mg/dL and a TG ([…], time 28 day) of 118.2 mg/dL. It also gave a TP ([…], time 28 day) of 5.9 g/dL.
